One assay concerns the target DGKα (Homo sapiens (Human), UniProt P23743). Nature of the assay: In vitro DGKα inhibition assay (ADP-Glo). Type of assay: biochemical. To be noted: His-tagged human recombinant enzyme, 0.1 nM DGKα, 50 μM ATP, 20 μM DLG, 90 minute incubation. The essentials:
(§1)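 His-tagged human DGKα (0.1 nM, 50 μM ATP) or DGKζ (0.4 nM, 30 μM ATP), each with 20 μM DLG, in Tris pH 7.5 buffer with CHAPS, Mg2+, Ca2+.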

The target in another assay is DGKζ (Homo sapiens (Human), UniProt Q13574). In words: In vitro DGKζ inhibition assay (ADP-Glo). Particulars: His-tagged human recombinant enzyme, 0.4 nM DGK, 30 μM ATP, 20 μM DLG, 90 minute incubation. Type of assay: biochemical. The method in brief:
as §1
On the technique in general: ADP-Glo first removes unused ATP, then detects ADP through luciferase.

This note sets out measurements from patent publication US20230399342A1 (Incyte Corporation, priority 2022, published 2023).

A word on the IC50: it is the concentration that inhibits the measured activity by half.

DGKα, sequence (P23743 whole entry): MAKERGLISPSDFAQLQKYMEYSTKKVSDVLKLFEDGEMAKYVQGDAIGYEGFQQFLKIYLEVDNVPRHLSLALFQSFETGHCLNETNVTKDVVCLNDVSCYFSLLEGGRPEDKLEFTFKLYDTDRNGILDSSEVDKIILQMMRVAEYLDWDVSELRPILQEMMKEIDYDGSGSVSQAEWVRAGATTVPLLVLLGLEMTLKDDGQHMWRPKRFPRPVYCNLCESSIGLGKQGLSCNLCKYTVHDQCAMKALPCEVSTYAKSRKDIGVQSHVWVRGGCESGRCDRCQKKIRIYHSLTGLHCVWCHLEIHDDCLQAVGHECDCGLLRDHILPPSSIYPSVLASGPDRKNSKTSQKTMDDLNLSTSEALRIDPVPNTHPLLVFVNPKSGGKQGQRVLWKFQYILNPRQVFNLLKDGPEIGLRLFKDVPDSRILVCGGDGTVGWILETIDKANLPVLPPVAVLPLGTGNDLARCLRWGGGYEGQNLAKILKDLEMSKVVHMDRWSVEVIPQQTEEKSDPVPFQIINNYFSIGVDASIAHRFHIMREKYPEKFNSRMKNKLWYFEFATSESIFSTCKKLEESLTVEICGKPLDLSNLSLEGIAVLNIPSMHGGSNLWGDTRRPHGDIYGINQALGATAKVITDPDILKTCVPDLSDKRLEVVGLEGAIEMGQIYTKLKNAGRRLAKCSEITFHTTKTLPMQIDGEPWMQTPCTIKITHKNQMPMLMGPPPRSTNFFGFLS
DGKζ, sequence (Q13574 whole entry): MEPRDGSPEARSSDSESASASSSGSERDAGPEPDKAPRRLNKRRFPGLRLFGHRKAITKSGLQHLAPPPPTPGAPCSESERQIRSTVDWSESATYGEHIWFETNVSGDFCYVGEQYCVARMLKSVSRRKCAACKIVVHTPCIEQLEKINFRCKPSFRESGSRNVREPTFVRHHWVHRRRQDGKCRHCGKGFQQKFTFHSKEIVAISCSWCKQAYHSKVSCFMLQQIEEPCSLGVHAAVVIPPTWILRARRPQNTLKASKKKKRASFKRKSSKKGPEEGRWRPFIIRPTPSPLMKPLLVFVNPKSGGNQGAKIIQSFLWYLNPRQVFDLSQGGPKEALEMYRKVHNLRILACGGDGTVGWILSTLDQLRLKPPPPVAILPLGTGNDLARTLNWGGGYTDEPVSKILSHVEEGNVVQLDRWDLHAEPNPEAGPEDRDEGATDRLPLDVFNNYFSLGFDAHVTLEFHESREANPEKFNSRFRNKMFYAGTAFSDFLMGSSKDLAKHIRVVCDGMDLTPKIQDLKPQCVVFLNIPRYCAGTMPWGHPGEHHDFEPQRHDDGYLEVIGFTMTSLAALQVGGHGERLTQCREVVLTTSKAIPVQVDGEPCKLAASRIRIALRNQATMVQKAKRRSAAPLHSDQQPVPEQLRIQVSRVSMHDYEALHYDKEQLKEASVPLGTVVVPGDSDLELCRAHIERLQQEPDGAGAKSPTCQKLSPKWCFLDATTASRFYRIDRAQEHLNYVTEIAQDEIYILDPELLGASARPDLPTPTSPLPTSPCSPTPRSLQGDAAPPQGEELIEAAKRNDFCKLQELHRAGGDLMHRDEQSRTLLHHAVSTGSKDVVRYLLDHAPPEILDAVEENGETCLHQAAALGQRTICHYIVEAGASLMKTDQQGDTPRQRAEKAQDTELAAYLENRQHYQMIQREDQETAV

On to `Cc1nc2c(N3C[C@@H](C)N([C@H](c4ccc(F)c(Cl)c4)C(C)C)C[C@@H]3C)nc3nncn3c2n1C[C@@H]1CCCO1` [Example 86, 4-((2S,5R)-4-((S)-1-(3-Chloro-4-fluorophenyl)-2-methylpropyl)-2,5-dimethylpiperazin-1-yl)-2-methyl-1-(((S)-tetrahydrofuran-2-yl)methyl)-1H-[1,2,4]triazolo[3,4-b]purine], for which the IC50 on DGKα and at DGKζ was no more than 20 nM each time.

As to `Cc1nc2c(N3C[C@@H](CO)N(C(c4ccc(Cl)cc4)c4ccc(Cl)cc4)C[C@@H]3C)nc3nncn3c2n1C[C@@H]1CCCO1` [Example 137, ((2S,5S)-1-(Bis(4-chlorophenyl)methyl)-5-methyl-4-(2-methyl-1-(((S)-tetrahydrofuran-2-yl)methyl)-1H-[1,2,4]triazolo[3,4-b]purin-4-yl)piperazin-2-yl)methanol], the half-maximal inhibitory concentration (IC50) at DGKα and on DGKζ was no more than 20 nM each time.

With `Cc1nc2c(N3C[C@@H](C)N(C(c4cc(F)ccc4F)C4CC(F)(F)C4)C[C@@H]3C)nc3nncn3c2n1C[C@@H]1CCCO1` (stereo partly drawn) [Example 53, 4-((2S,5R)-4-((3,3-Difluorocyclobutyl)(2,5-difluorophenyl)methyl)-2,5-dimethylpiperazin-1-yl)-2-methyl-1-(((S)-tetrahydrofuran-2-yl)methyl)-1H-[1,2,4]triazolo[3,4-b]purine], the concentration for half-maximal inhibition (IC50) on DGKα and on DGKζ was no more than 20 nM in each case.

As for `Cc1nc2c(N3C[C@@H](C)N([C@@H](c4ccc(Cl)cc4)C(C)C)C[C@@H]3C)nc3nncn3c2n1C[C@@H]1CCCO1` [Example 89, 4-((2S,5R)-4-((R)-1-(4-chlorophenyl)-2-methylpropyl)-2,5-dimethylpiperazin-1-yl)-2-methyl-1-(((S)-tetrahydrofuran-2-yl)methyl)-1H-[1,2,4]triazolo[3,4-b]purine], the IC50 on DGKα and on DGKζ was no more than 20 nM each time.

Turning to `COC[C@@H]1CN(c2nc3nncn3c3scnc23)[C@@H](C)CN1C(c1ccc(F)cc1)c1ccc(F)cc1` [Example 13, 4-((2S,5S)-4-(Bis(4-fluorophenyl)methyl)-5-(methoxymethyl)-2-methylpiperazin-1-yl)thiazolo[4,5-e][1,2,4]triazolo[4,3-a]pyrimidine], the concentration for half-maximal inhibition (IC50) was no more than 20 nM at DGKα and 20 to 200 nM at DGKζ.

`Cc1nc2c(N3C[C@@H](C)N(C(c4ccc(C(F)(F)F)cc4)C4CCC(F)(F)CC4)C[C@@H]3C)nc3nncn3c2n1C[C@@H]1CCCO1` (stereo partly drawn) [Example 117, 4-((2S,5R)-4-((4,4-Difluorocyclohexyl)(4-(trifluoromethyl)phenyl)methyl)-2,5-dimethylpiperazin-1-yl)-2-methyl-1-(((S)-tetrahydrofuran-2-yl)methyl)-1H-[1,2,4]triazolo[3,4-b]purine]: the IC50 at DGKα and at DGKζ was no more than 20 nM in each case.

For the molecule `C[C@@H]1CN(c2nc3nncn3c3c2cnn3C)[C@@H](C)CN1C(c1ccc(F)cc1)c1ccc(F)cc1` [Example 6, 4-((2S,5R)-4-(Bis(4-fluorophenyl)methyl)-2,5-dimethylpiperazin-1-yl)-1-methyl-1H-pyrazolo[4,3-e][1,2,4]triazolo[4,3-a]pyrimidine], the IC50 at DGKα was no more than 20 nM; on DGKζ, greater than 2000 nM.

As to `Cc1nc2c(N3C[C@@H](C)N([C@H](c4ccc(Cl)c(Cl)c4)C4CC(F)(F)C4)C[C@@H]3C)nc3nncn3c2n1C[C@@H]1CCCO1` [Example 48, 4-((2S,5R)-4-((S)-(3,4-Dichlorophenyl)(3,3-difluorocyclobutyl)methyl)-2,5-dimethylpiperazin-1-yl)-2-methyl-1-(((S)-tetrahydrofuran-2-yl)methyl)-1H-[1,2,4]triazolo[3,4-b]purine], the IC50 at DGKα and on DGKζ was no more than 20 nM throughout.

For `C[C@@H]1CN(c2nc3nncn3c3c2ncn3CCN(C)C)[C@@H](C)CN1[C@H](c1ccc(C(F)(F)F)cc1)c1ccc(C(F)(F)F)cn1` [Example 102, 2-(4-((2S,5R)-2,5-dimethyl-4-((R)-(4-(trifluoromethyl)phenyl)(5-(trifluoromethyl)pyridin-2-yl)methyl)piperazin-1-yl)-1H-[1,2,4]triazolo[3,4-b]purin-1-yl)-N,N-dimethylethan-1-amine], the concentration for half-maximal inhibition (IC50) at DGKα and on DGKζ was no more than 20 nM in each case.

Regarding `CC[C@@H]1CN(c2nc3nncn3c3c2nc(C)n3C[C@@H]2CCCO2)[C@@H](C)CN1C(c1ccc(Cl)cc1)c1ccc(Cl)cc1` [Example 41, 4-((2S,5R)-4-(Bis(4-chlorophenyl)methyl)-5-ethyl-2-methylpiperazin-1-yl)-2-methyl-1-(((S)-tetrahydrofuran-2-yl)methyl)-1H-[1,2,4]triazolo[3,4-b]purine], the IC50 on DGKα and on DGKζ was no more than 20 nM throughout.

In the case of `COc1ccc([C@H](c2ccc(C(F)F)cc2)N2C[C@H](C)N(c3nc4nncn4c4c3nc(C)n4C[C@@H]3CCCO3)C[C@H]2C)cc1` [Example 92, 4-((2S,5R)-4-((4-(Difluoromethyl)phenyl)(4-methoxyphenyl)methyl)-2,5-dimethylpiperazin-1-yl)-2-methyl-1-(((S)-tetrahydrofuran-2-yl)methyl)-1H-[1,2,4]triazolo[3,4-b]purine], the concentration for half-maximal inhibition (IC50) at DGKα and at DGKζ was no more than 20 nM in each case.

In the case of `Cc1cc(C(C2CC(F)(F)C2)N2C[C@H](C)N(c3nc4nncn4c4c3nc(C)n4C[C@@H]3CCCO3)C[C@H]2C)ccc1Cl` (stereo partly drawn) [Example 51, 4-((2S,5R)-4-((4-Chloro-3-methylphenyl)(3,3-difluorocyclobutyl)methyl)-2,5-dimethylpiperazin-1-yl)-2-methyl-1-(((S)-tetrahydrofuran-2-yl)methyl)-1H-[1,2,4]triazolo[3,4-b]purine], the IC50 on DGKα and on DGKζ was no more than 20 nM each time.

Turning to `CC[C@@H]1CN(c2nc3nncn3c3c2nnn3C[C@@H]2CCCO2)[C@@H](C)CN1C(c1ccc(F)cc1)C1CC(F)(F)C1` (single isomer, unassigned) [Example 120], the IC50 on DGKα and at DGKζ was no more than 20 nM throughout.

For the molecule `CC[C@@H]1CN(c2nc3nncn3c3c2nc(C)n3C[C@@H]2CCCO2)[C@@H](C)CN1C(c1ccc(F)cc1)c1ccc(C#N)cc1` (stereo partly drawn) [Example 132, 4-(((2R,5S)-2-Ethyl-5-methyl-4-(2-methyl-1-(((S)-tetrahydrofuran-2-yl)methyl)-1H-[1,2,4]triazolo[3,4-b]purin-4-yl)piperazin-1-yl)(4-fluorophenyl)methyl)benzonitrile], the half-maximal inhibitory concentration (IC50) on DGKα and at DGKζ was no more than 20 nM throughout.

On to `Cc1nnc2nc(N3C[C@@H](C)N(C(c4ccc(F)cc4)c4ccc(F)cc4)C[C@@H]3C)c3ncsc3n12` [Example 2, 4-((2S,5R)-4-(Bis(4-fluorophenyl)methyl)-2,5-dimethylpiperazin-1-yl)-8-methylthiazolo[4,5-e][1,2,4]triazolo[4,3-a]pyrimidine], for which the 50% inhibitory concentration (IC50) is no more than 20 nM on DGKα and 200 to 2000 nM on DGKζ.

As for `Cc1nc2c(N3C[C@@H](C)N([C@H](c4ccc(Cl)cc4)C(C)C)C[C@@H]3C)nc3nncn3c2n1C[C@@H]1CCCO1` [Example 88, 4-((2S,5R)-4-((S)-1-(4-Chlorophenyl)-2-methylpropyl)-2,5-dimethylpiperazin-1-yl)-2-methyl-1-(((S)-tetrahydrofuran-2-yl)methyl)-1H-[1,2,4]triazolo[3,4-b]purine], the IC50 on DGKα and on DGKζ was no more than 20 nM throughout.
